Data reported in US5103014A, “Certain 3,3'-[[[(2-phenyl-4-thiazolyl)methoxy]phenyl]methylene]dithiobis-propano ic acid derivatives” (American Home Products Corporation, priority 1990, dated 1992).
Where two headings read alike, the source gives them in different places.

Columns and labels:
[1] = tested on: ovalbumin induced bronchospasm; assay: In vivo inhibition of ovalbumin induced bronchospasm in sensitized guinea pigs (endogenous mediators); set-up: species or system guinea pig; details: 25 mg/kg, intragastrically, 10 minutes before intravenous ovalbumin challenge
Description: The assay of this Example measures the in vivo ability of the compounds of the invention to inhibit the bronchospasm induced in guinea pigs by endogenous mediators of the bronchoconstriction.
Male Hartley strain guinea pigs weighing 250-350 g are sensitized to chicken ovalbumin (OA) (10 mg i.p.) on days 1 and 3 and used starting on day 26. The animals are anesthetized with pentobarbital sodium (50 mg/kg, i.p.), bilateral vagotomy is performed, and the jugular vein is cannulated for injection of drugs and the carotid artery for monitoring blood pressure. The trachea is cannulated for artificial ventilation by miniature Starling pump and for indirect measurement of respiratory volume changes as described, infra. Succinylcholine (2 mg/kg, i.v.) is administered to arrest spontaneous respiration. […]
Respiratory volume changes are determined by a calibrated piston whose travel is recorded, via a linear transducer, on a Beckman Dynograph recorder. Maximal bronchoconstrictor volume is determined by clamping off the trachea at the end of the experiment. Overflow volumes at minutes 1, 3 and 5 are obtained from the recorded charts.
Area under the volume overflow curve (AUC) is estimated, using the overflow values at 1, 3 and 5 minutes, and expressed as a percentage of the maximal overflow AUC (equation 1): [formula] […]

[2] = tested on: TxB2 synthesis (cyclooxygenase); assay: Inhibition of synthesis of cyclooxygenase oxidation product TxB2 (rat polymorphonuclear leukocytes); type: cell-based; details: Leukocyte, rat PMN
Description: (§1) Peritoneal PMN are obtained from female Wistar rats (150-250 g) that received an i.p. injection of 6% glycogen (10 ml). After 24 hours, rats are killed by CO2 asphyxiation and peritoneal cells are harvested by peritoneal lavage using Ca^++ and Mg^++ free Hanks' balanced salt solution (HBSS). The peritoneal exudate is centrifuged at 400 g for 10 minutes. After centrifugation, the lavaged fluid is removed and the cell pellet is resuspended in HBSS containing Ca^++ and Mg^++ and 10 mM L-cysteine at a concentration of 2×10^7 cells/ml. To 1 ml portions of cell suspension, test drugs or vehicle are added and incubated at 37° C. for 10 minutes. Following this preincubation, the calcium ionophore (10 μM), A23187, is added together with 0.5 μCi [^14 C] arachidonic acid and further incubated for 10 minutes. The reaction is stopped by the addition of ice cold water (3 ml) and acidification to pH 3.5. Lipoxygenase products are then extracted twice into diethyl ether. The pooled ether extracts are evaporated to dryness under nitrogen and the residue is redissolved in a small volume of methanol and spotted on aluminum backed pre-coated thin layer chromatographic plates. The samples are then co-chromatographed with authentic reference 5,12-diHETE in the solvent system-hexane:ether:acetic acid (50:50:3). After chromatography, the areas associated with 5,12-diHETE standard are identified by autoradiography, cut out and quantitated by liquid scintillation.
The procedure of Example 17 is also employed for the determination of the ability of the compounds of the invention to inhibit the synthesis of the arachidonic acid cyclooxygenase oxidation product TxB2.
In this assay, the procedure of Example 17 is carried out as described. However, in order to determine cyclooxygenase activity, the samples are cochromatographed with authentic reference TxB2 in the solvent system ethyl acetate:formic acid (80:1) and the upper phase of ethyl acetate:isoctane:acetic acid:water (110:50:20:100). After chromatography, the areas associated with TxB2 standard are identified by autoradiography, cut out and quantitated by liquid scintillation techniques.
The results are calculated as in Example 12 and presented below: […]

[3] = tested on: 5,12-diHETE synthesis by rat glycogen-elicited polymorphonuclear leukocytes; assay: Inhibition of 5,12-diHETE synthesis by rat glycogen-elicited polymorphonuclear leukocytes; type: cell-based; details: Leukocyte, rat PMN
Description: This is especially true with respect to 5,12-diHETE, which is also denoted as LTB4 [see Ford-Hitchinson, J. Roy. Soc. Med., 74, 831 (1981)]. The assay of this Example measures the ability of the compounds of the invention to inhibit the synthesis of 5,12-diHETE by rat glycogen-elicited polymorphonuclear leukocytes.
as §1
Results are expressed as the 50% Inhibitory concentration, or as percent inhibition at a given.

[4] = tested on: LTD4 induced bronchoconstriction; assay: In vivo inhibition of LTD4 induced bronchospasm in guinea pigs (exogenously administered leukotrienes); set-up: species or system guinea pig; details: 10 minutes before induction of bronchospasm (LTD4)
[5] = tested on: acute inflammatory response (carrageenan paw edema); assay: Rat carrageenan paw edema assay; type: in vivo; details: po, 50 mg/kg peroral, 1 hour prior to carrageenan, edema at 3 hours
Description: The compounds of the invention are tested in the rat carrageenan paw edema assay to determine their ability to inhibit the acute inflammatory response. 140-180 gm male Sprague-Dawley rats, in groups of 6 animals, are injected subcutaneously in the right paw with 0.1 ml of 1% carrageenan at zero time. Mercury plethysmographic readings (ml) of the paw are made at zero time and 3 hours later. Test compounds are suspended or dissolved in 0.5% methylcellulose and given perorally 1 hour prior to carrageenan administration. The increase in paw volume (edema in ml.) produced by the carrageenan is measured. […] Unpaired Student's t-test is used to determine statistical significance.

[6] = target: T1, LTD4 (contraction of isolated guinea pig trachea) (Cavia porcellus, UniProt Q2NNR5); assay: Isolated guinea pig trachea assay, LTD4 antagonist activity; type: cell-based
T1 construct: from tissue; host or cells: isolated tracheal rings of male Hartley guinea pigs
T1 sequence (Q2NNR5 1-340): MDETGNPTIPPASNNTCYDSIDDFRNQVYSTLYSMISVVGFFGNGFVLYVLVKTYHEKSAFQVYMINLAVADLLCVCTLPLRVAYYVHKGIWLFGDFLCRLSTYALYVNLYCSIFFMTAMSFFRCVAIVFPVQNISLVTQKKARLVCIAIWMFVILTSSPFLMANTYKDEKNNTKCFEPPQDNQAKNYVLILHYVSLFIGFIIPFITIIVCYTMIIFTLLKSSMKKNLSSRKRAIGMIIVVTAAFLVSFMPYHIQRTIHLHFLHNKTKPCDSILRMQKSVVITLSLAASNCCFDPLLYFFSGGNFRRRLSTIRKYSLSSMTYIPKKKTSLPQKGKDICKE
Description: The compounds of the invention are tested in the isolated guinea pig trachea assay to assess their LTD4 antagonist activity. Male Hartley guinea pigs (350-400 g) are euthanized by a blow to the head, the neck is opened and the trachea removed. The trachea is maintained in aerated physiological salt solution, cleared of connective tissue and fat and cut into rings approximately 2 mm in width (usually containing two cartilaginous segments per ring). Two pieces of silk suture are then passed through the lumen of the tracheal ring and are tied around the cartilage, one on each side of the trachealis muscle. The tracheal ring is suspended between a glass hook and a force displacement transducer in a 10 ml organ bath for measurement of isometric tension. Tissues are maintained at 37° C. in aerated (95% O2 /5% CO2) physiological salt solution of the following composition: […] The tracheal rings are maintained at 2 g resting tension and equilibrated for 45 minutes (with frequent washing and readjustment of resting tension). The tracheal rings are first contracted by the addition of carbachol (3×10^-6 M), to determine tissue responsiveness and establish a reference contraction. On attainment of a stable level of contraction (approximately 30 minutes), the tissues are washed several times until baseline tension has been restored and then re-equilibrated for 30 minutes. The tissues are then incubated for 45 minutes with a test antagonist (either 1×10^-6 M or 1×10^-5 M) or 10 μl of an appropriate solvent control (control, non-treated). One tissue in each group serves as the control. Twenty minutes prior to the construction of the LTD4 cumulative concentration-response curve, L-[…]×10^-2 M final bath concentration) is added to inhibit bioconversion of LTD4 to LTE4. Only one LTD4 concentration-response curve is constructed in each tissue. All responses to LTD4 are calculated as a percentage of the reference contraction to carbachol. LTD4 antagonist activity is determined by comparison of the concentration response curves of LTD4 in the presence and absence of antagonist. Assessment of the relative rightward shift of the antagonist treated curve relative to the solvent (control) treated tissue is calculated as a concentration ratio (Eq. A) and used in subsequent calculations to derive an antagonist pKB value (Eqs B&C). In the event that the maximum response to LTD4 is depressed, the EC50 for that particular curve is determined, an "apparent" pKB reported, and the compound reported as "not-competitive."

[7] = target: T1, LTD4 (contraction of isolated guinea pig trachea); details: literature value, reference (1); cited from earlier work
[8] = A23187 10 μM, read-out: 50% Inhibitory Concentration (IC50)
[9] = reference compounds, LTD4 concentration-response curve, read-out: pKB (converted)

## O=S(=O)(Nc1cccc(OCc2csc(-c3ccccc3)n2)c1)C(F)(F)F [Example 3, 1,1,1-Trifluoro-N-[3-[(2-phenyl-4-thiazolyl)methoxy]phenyl]methanesulfonamide]
[1]
  % Inhibition: 10%
[2]; [8]
  IC50: 1700 nM
[3]; [8]
  IC50: 3200 nM
[4]; Cavia porcellus, intragastrically, read-out: ED50
  ED50: 2.4 mg/kg
[4]; intragastrically
  ED50: 3.0 mg/kg
[5]
  inhibition in vivo at 50 mg/kg: 51%

## O=S(=O)(Nc1cccc(OCc2csc(-c3ccc(F)cc3)n2)c1)C(F)(F)F [Example 9B, 1,1,1-Trifluoro-N-[3-[[2-(4-fluorophenyl)-4-thiazolyl]methoxy]phenyl]methanesulfonamide]
[2]; 10 μM
  inhibition at 10 µM: 32%
[3]; 10 μM
  inhibition at 10 µM: 64%
[4]; Cavia porcellus, intraduodenal, 25 mg/kg, intraduodenally
  inhibition in vivo at 25 mg/kg: 100%
[4]; Cavia porcellus, po, 10 mg/kg, intragastrically
  inhibition in vivo at 10 mg/kg: 92%
[5]
  inhibition in vivo at 50 mg/kg: 55%

## CCCc1c(OCCCCc2nn[nH]n2)ccc(C(C)=O)c1O [LY-171,883, reference compound]
[6]; [9]
  Kb: 126 nM
[7]
  pKB (Reference): 6.65

## O=S(=O)(Nc1cccc(OCc2ccc3ccccc3n2)c1)C(F)(F)F [Wy-48,252, reference compound]
[6]; antagonist concentration 1 × 10^-6 M, read-out: pKB ± S.E. (converted)
  Kb: 83.2 nM
[6]; [9]
  Kb: 36.3 nM
[7]
  pKB (Reference): 7.70
